Test results as given in patent publication US12508176B2, “Sanitary article comprising a water-soluble dry coating comprising skin beneficial additives” (priority 2022, dated 2025).

Assay: transfer study of dry water-soluble coating from sanitary article to skin (tape stripping, LC-MS/MS)
Format: in vivo, test persons
Description: FIG. 3 is a bar chart illustrating the results from a transfer study made with two sanitary articles according to the present invention. Eight test persons wore sanitary articles on three different spots on the volar forearms for three days (3 products per day). One spot was covered with products coated with formula A, one with products coated with formula B and one with reference product without any formula. After three days the skin in the test spots plus one additional spot where no product had been worn was harvested by means of tape stripping. The sample tape strips were extracted, analyzed by LC-MS/MS quantifying the betaine and allantoin content.

Row | transfer to the skin (betaine and allantoin content of tape strips) (sanitary articles coated with formula A or B worn on volar forearms for three days, 3 products per day, tape stripping, LC-MS/MS, FIG. 3) | transfer to the skin (betaine and allantoin content of tape strips) (in vivo) | Structure (SMILES)
1 | readily detected on the skin |  | NC(=O)NC1NC(=O)NC1=O (centres unmarked) [allantoin]
2 |  | readily detected on the skin | C[N+](C)(C)CC(=O)[O-] [betaine, trimethylglycine]
